In patent US20210230159A1, “4H-PYRIDO[1,2-A]PYRIMIDIN-4-ONE COMPOUNDS” (Prana Biotechnology Limited, priority 2014, published 2021):

Assay: Hydrogen peroxide (H2O2) inhibition assay (fluorescence, DCF/horseradish peroxidase)
Format: biochemical
Settings: for IC50: HCl salt tested where HCl salt MW is given; for Fe-ASC % (cf. 0.4 uM Fe/Asc; cf. CQ, CQ = 100%) / Cu % ASC (cf. CQ = 100%) / Zn % ASC (cf. CQ = 100%): ascorbic acid as reducing substrate; for Fe-ASC % (cf. 0.4 uM Fe/Asc; cf. CQ, CQ = 100%) / Fe-DA % (cf. 0.4 uM Fe/DA; cf. CQ, CQ = 100%): test compound 0.4 μM, lower values = greater inhibition of H2O2; for Fe-DA % (cf. 0.4 uM Fe/DA; cf. CQ, CQ = 100%): dopamine as reducing substrate
Procedure: Assay 1. Hydrogen Peroxide Assay
H2O2 is a strong oxidizer and a highly reactive oxygen species that is known to be toxic to surrounding proteins and organelles, inhibiting their function. […] […] H2O2 generated by the system is assessed by measuring the specific fluorescence profile at the excitation and emission wavelengths of 485 and 530 nm respectively, in the presence of test compound. Test compounds were dissolved in DMSO and tested at concentrations of 0.4 μM. Test compounds are ranked according to their capacity to inhibit H2O2 generated by the system where lower values reflect greater ability to inhibit H2O2 production.

Compound	IC50 [nM]	Fe-ASC % (cf. 0.4 uM Fe/Asc; cf. CQ, CQ = 100%) [% ASC]	Cu % ASC (cf. CQ = 100%)	Zn % ASC (cf. CQ = 100%)	Fe-DA % (cf. 0.4 uM Fe/DA; cf. CQ, CQ = 100%) [%]
CCCc1cnc2c(O)c(Cl)ccn2c1=O [Compound 1235]	290	86			
COCc1cnc2c(O)cccn2c1=O [Compound 1398, 9-Hydroxy-3-(methoxymethyl)-4H-pyrido[1,2-a]pyrimidin-4-one]	1290	39			
CN(C)Cc1cc(=O)n2cccc(O)c2n1 [Compound 1401]	420	55			
CCN1CCN(Cc2cc(=O)n3cccc(O)c3n2)CC1 [Compound 1402]	1680	36			
O=c1cc(CN2CCCCC2)nc2c(O)cccn12 [Compound 1403]	1700	49			
O=c1cc(CNCc2ccc(Cl)cc2)nc2c(O)cccn12 [Compound 1406]	1140				
O=c1cc(CNCc2ccc(F)cc2)nc2c(O)cccn12 [Compound 1409]	140				
O=c1cc(CNCc2ccccn2)nc2c(O)cccn12 [Compound 1414]	< 100	29			
CCCCCNC(=O)c1cnc2c(O)cccn2c1=O [Compound 1422]	680	63			
CCCNC(=O)c1cnc2c(O)cccn2c1=O [Compound 1423]	380	45			
CN(C)Cc1cnc2c(O)cccn2c1=O [Compound 1424, 3-((Dimethylamino)methyl)-9-hydroxy-4H-pyrido[1,2-a]pyrimidin-4-one hydrogen chloride]	800	48			
CC(C)CNC(=O)c1cnc2c(O)cccn2c1=O [Compound 1425]	340		Cu 212% ASC	Zn 69% ASC	76
O=C(NCCN1CCCC1)c1cnc2c(O)cccn2c1=O [Compound 1426]	320		Cu 212% ASC	Zn 121% ASC	62
O=C(NCCc1ccccn1)c1cnc2c(O)cccn2c1=O [Compound 1427]	180		Cu 212% ASC	Zn 61% ASC	74

Next, values leading:

IC50 [nM]	Fe-ASC % (cf. 0.4 uM Fe/Asc; cf. CQ, CQ = 100%) [% ASC]	Cu % ASC (cf. CQ = 100%)	Zn % ASC (cf. CQ = 100%)	Fe-DA % (cf. 0.4 uM Fe/DA; cf. CQ, CQ = 100%) [%]	Compound
720	96				CCCCCCCCNC(=O)c1cnc2c(O)cccn2c1=O [Compound 1394]
330	32				CCNCc1cc(=O)n2cccc(O)c2n1 [Compound 1400]
290	35				CCCCNCc1cc(=O)n2cccc(O)c2n1 [Compound 1405]
430					CC(C)CNCc1cc(=O)n2cccc(O)c2n1 [Compound 1408, 9-Hydroxy-2-((isobutylamino)methyl)-4H-pyrido[1,2-a]pyrimidin-4-one hydrogen chloride]
430	62				CCCCCCCCNCc1cc(=O)n2cccc(O)c2n1 [Compound 1410]
330	36				O=c1cc(CNCC2CC2)nc2c(O)cccn12 [Compound 1411]
130	29				O=c1cc(CNCCCN2CCOCC2)nc2c(O)cccn12 [Compound 1412]
190	42				CCCCCNCc1cc(=O)n2cccc(O)c2n1 [Compound 1413]
< 100	34				O=c1cc(CNCCc2ccccn2)nc2c(O)cccn12 [Compound 1415]
130	29				O=c1cc(CNCCN2CCCC2)nc2c(O)cccn12 [Compound 1417]
240	30				O=c1cc(CNCCN2CCOCC2)nc2c(O)cccn12 [Compound 1418]
